Measured values reported in article PMC8746705, “Comparison of Experimental Strategies to Study L-Type Amino Acid Transporter 1 (LAT1) Utilization by Ligands” (Molecules, 2021).

Tests used:
LAT1 [1] = assay: Quantitative expression of LAT1 on the BV2 plasma membrane (LC-MS proteomics); format: cell-based, mouse; details: BV2 cells incubated 24 h; normalized to Na+/K+ATPase; compared to untreated control
Experimental: The protein expression levels of LAT1, in the plasma membrane fractions of BV2 cells were quantified using multiplexed MRM analysis according to the protocol described by Uchida et al.. First, the crude membrane fractions were isolated from three distinct sets of cell culture plates using Membrane Protein Extraction Kit (BioVision Incorporated, Milpitas, CA, USA) according to the manufacturer’s instructions. The protein content for each fraction was measured by Bio-Rad Protein Assay, based on the Bradford dye-binding method (EnVision, Perkin Elmer, Inc., Waltham, MA, USA). A total amount of 50 µg protein from each fraction was solubilized/denatured in 7 M guanidine hydrochloride, 0.5 M Tris-HCl and 10 mM EDTA-Na. The proteins were then reduced by dithiothreitol (1:50, w/w) and S-carboxymethylated by iodoacetamide (1:20, w/w). The alkylated proteins were precipitated by methanol/chloroform/water (4:1:3) and centrifuged at 18,000× g for 5 min at 4 °C. The pellet was resuspended in 6 M urea and mixed for 10 min at room temperature before the dilution with 0.1 M Tris-HCl (pH 8.5) to a final concentration of 1.2 M urea, and dissolved completely by intermittent sonication (Branson 3510, Danbury, CT, USA). The dissolved proteins were first digested with LysC (1/100, w/w) and 0.05% ProteaseMax (Promega Biotech AB, Nacka, Sweden) for 3 h at room temperature. Then, the samples were spiked with 10 µL (30 fmol) of the labelled peptides for absolute quantification (JPT Peptide Technologies GmbH, Berlin, Germany) (Table S2). The samples were incubated with (1/100, w/w) TPCK-Trypsin (Promega Biotech AB, Nacka, Sweden) for 18 h at 37 °C. The tryptic digestion was then quenched by adding 40 µL of 5% formic acid. The samples were then centrifuged at 18,000× g for 5 min at 4 °C, and the supernatants were transferred to vials for analysis.
The digested peptides were analyzed using an ultra-performance liquid chromatography system coupled with a triple quadrupole mass spectrometer with a heated electrospray ionization source in the positive mode (UPLC 1290 and MSD 6495, Agilent Technologies, Santa Clara, CA, USA). A total amount of 20 µL of the digested peptides (10 µg) was separated using AdvanceBio Peptide Map 2.1 × 250 mm, 2.7 μm column (Agilent Technologies, Santa Clara, CA, USA) and LC eluents of 0.1% formic acid in water (A) and acetonitrile (B). The peptides were eluted following a constant flow rate of 0.3 mL/min and a gradient of 2–7% B for 2 min, followed by 7–30% B for 48 min, 30–45% B for 3 min, and 45–80% B for 2.5 min before re-equilibrating the column again for 4.5 min. LAT1 was quantified based on the ratio between the light and heavy standard peptides, as described previously (Table S2). Data was acquired using Agilent MassHunter Workstation Acquisition (Agilent Technologies, Data Acquisition for Triple Quadrupole, version B.03.01) and processed by using Skyline software (version 20.1). The results were normalized to a housekeeping protein Na+/K+ATPase and expressed as fmol/µg of the total amount of protein in the samples.

LAT1 [2] = molecular target: T1, LAT1 (Mus musculus, UniProt Q9Z127); design: method as in earlier work; details: BV2 cells; probe [14C]-L-Leu; mean ± SD; published earlier; ref [31] or [33]; read-out: IC50 of [14C]-L-Leu uptake; cited from earlier work
LAT1 [3] = molecular target: T1, LAT1; assay: Cellular uptake of L-leucine after pre-incubation of BV2 cells with the compounds; format: cell-based; details: 100 µM (L-glutamine 2 mM) pre-incubated 10 min or 3 h, L-leucine 1–400 µM, 5 min
Experimental: The ability of compounds 1–15 to affect the uptake of a known LAT1 substrate L-leucine was evaluated by pre-incubating the BV2 cells at 37 °C for 10 min or 3 h with uptake buffer pH 7.4 (250 μL) containing 100 µM of compounds 1–15 or thyroxin (T4), or known nuclear receptor inducible compounds, phenobarbital (constitutive androstane receptor, CAR), and dexamethasone (pregnane X receptor, PXR) as controls. […] After incubation, the reaction was stopped by adding 250 µL of ice-cold HBSS, and the cells were washed two times with ice-cold HBSS. The cells were then lysed with 500 μL of 0.1 M NaOH (60 min) and the lysate was mixed with 3.5 mL of Emulsifier safe cocktail (Ultima Gold, PerkinElmer, Waltham, MA, USA). The radioactivity in the cells was measured by liquid scintillation counting (MicroBeta^2 counter, PerkinElmer Waltham, MA, USA). The results were multiplied by the amount of un-labeled proportion of L-leucine in each sample.

[4] = Liver lysosomal accumulation after i.p. dose to mice; format: in vivo; details: mouse liver; parent drug of the named prodrug
Experimental: Adult male mice weighing 25 ± 5 g were supplied by Envigo (Venray, Netherlands). Mice were housed in stainless steel cages on a 12 h light (07:00–19:00) and 12 h dark (19:00–07:00) cycle at an ambient temperature of 22 ± 1 °C with a relative humidity of 50–60%. All experiments were carried out during the light phase. Tap water and food pellets (Lactamin R36; Lactamin AB, Södertälje, Sweden) were available ad libitum. A dose of 25 µmol/kg of compound 1, 2, or 8–11 was given as a bolus injection (i.p.) to mice. The mice were decapitated at selected time points between (10–360 min) and brain tissues were collected for sample preparation to be analyzed by liquid chromatography-mass spectrometric (LC-MS/MS) analysis.
The liver lysosomal samples (10–120 min; tmax) were prepared by homogenizing the pre-weigh tissues with ice-cold 0.25 M sucrose (1:3). […] Samples were vortexed and centrifuged at 10,000× g at 4 °C for 10 min and injected to LC-MS/MS to quantify the total drug amount in tissue as a control to lysosomal samples. […] The concentration of compounds in the crude lysosomal fractions were then analyzed with LC-MS/MS. Both the total liver tissue accumulation as well as the lysosomal fraction (including the possibly released parent drugs) were calculated from the standard curve that was prepared by spiking known amounts of compounds to ACN, including the selected internal standard. […]

T1 sequence (Q9Z127 whole entry): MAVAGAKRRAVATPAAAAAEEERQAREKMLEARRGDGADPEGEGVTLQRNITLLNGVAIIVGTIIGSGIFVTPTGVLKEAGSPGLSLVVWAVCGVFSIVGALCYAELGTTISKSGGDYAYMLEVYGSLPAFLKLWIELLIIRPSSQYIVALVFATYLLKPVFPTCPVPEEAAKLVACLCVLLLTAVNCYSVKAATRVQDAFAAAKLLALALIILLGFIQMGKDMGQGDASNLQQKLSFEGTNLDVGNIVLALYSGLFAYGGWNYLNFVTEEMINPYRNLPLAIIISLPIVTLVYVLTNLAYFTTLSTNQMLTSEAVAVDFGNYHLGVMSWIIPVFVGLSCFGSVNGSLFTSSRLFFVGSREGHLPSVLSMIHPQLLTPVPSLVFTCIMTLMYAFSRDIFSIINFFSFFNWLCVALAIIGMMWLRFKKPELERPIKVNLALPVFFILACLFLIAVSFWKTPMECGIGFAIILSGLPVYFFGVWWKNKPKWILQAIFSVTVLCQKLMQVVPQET
T1 sequence (P10852 whole entry partner): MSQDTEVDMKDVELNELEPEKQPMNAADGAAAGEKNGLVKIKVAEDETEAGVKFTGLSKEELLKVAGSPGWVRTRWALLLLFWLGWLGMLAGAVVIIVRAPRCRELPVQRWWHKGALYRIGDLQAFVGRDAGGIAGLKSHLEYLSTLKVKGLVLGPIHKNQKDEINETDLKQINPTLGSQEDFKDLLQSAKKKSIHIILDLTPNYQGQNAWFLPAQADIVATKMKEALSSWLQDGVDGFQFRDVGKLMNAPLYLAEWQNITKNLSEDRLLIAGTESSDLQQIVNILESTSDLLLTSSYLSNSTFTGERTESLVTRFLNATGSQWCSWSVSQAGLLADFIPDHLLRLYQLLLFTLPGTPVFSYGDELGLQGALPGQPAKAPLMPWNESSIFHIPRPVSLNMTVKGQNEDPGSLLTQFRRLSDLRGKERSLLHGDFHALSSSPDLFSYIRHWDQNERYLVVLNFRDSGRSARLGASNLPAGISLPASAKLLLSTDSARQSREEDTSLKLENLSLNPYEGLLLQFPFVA

Row | SMILES | LAT1 expression on the plasma membrane (LAT1 [1]) | IC50 (LAT1 [2]) | Effect on cellular uptake of L-Leu after pre-incubation (LAT1 [3]) | Accumulation of parent drug (dosed as such) into crude lysosomal fraction, of total liver tissue accumulation [4]
1 | N[C@@H](Cc1cccc(NC(=O)c2ccccc2O)c1)C(=O)O [Compound 8] | did not have any effect on LAT1 expression | 18.9 ± 1.6 µM | – | –
2 | COc1cc(C=CC(=O)NCc2cccc(CC(N)C(=O)O)c2)ccc1O (stereo not shown) [Compound 5] | downregulated LAT1 expression | – | induced the uptake of L-Leu | –
3 | C[C@H](C(=O)Nc1cccc(C[C@H](N)C(=O)O)c1)c1cccc(C(=O)c2ccccc2)c1 [Compound 2] | downregulated LAT1 expression | – | induced the uptake of L-Leu | no parent drug was detected
4 | C[C@H](C(=O)Nc1cccc(C[C@H](N)C(=O)O)c1)c1ccc(-c2ccccc2)c(F)c1 [Compound 9] | did not have any effect on LAT1 expression | – | – | –
5 | C[C@H](C(=O)Oc1cccc(C[C@H](N)C(=O)O)c1)c1ccc(-c2ccccc2)c(F)c1 [Compound 12] | did not have any effect on LAT1 expression | 4.2 ± 1.2 µM | – | –
